By IC50 is commonly meant the midpoint of a concentration-inhibition curve. A word on the inhibition: it is the share of the control response that was lost under treatment. The low end stands for a weak effect, the high end for a strong effect.

For series [1], the system named is W1-38 cells. Briefly: Cytotoxicity assay against W1-38 cells (CellTiter-Glo). It is filed as cell-based. To be noted: 100% = not cytotoxic, 0% = cytostatic. As for the experimental part:
The assays were performed using the CellTiter-Glo assay from Promega (Madison, AL, USA). The assay detects cellular adenosine triphosphate (ATP) content with the amount of ATP being directly proportional to the number of cells present. The A549 cells were obtained from DSMZ (German Collection of Microorganisms and Cell Cultures, Braunschweig, Germany) and W1-38 cells were obtained from ATCC (ATCC® CCL-75™) and were grown in Dulbecco's Modified Eagle Medium (DMEM) from Capricorn Scientific GmbH, Ebsdorfergrund, Germany with fetal bovine serum (FBS) (10% v/v) from Capricorn Scientific GmbH, Ebsdorfergrund, Germany, streptomycin (100 μg/mL) and penicillin G (100 U/mL).

Series [2] has as its target T1, CYP1A2 (Homo sapiens, UniProt P05177).
T1 construct: purchased Promega; host or cells: baculovirus-infected insect cells
T1 sequence (P05177 1-516): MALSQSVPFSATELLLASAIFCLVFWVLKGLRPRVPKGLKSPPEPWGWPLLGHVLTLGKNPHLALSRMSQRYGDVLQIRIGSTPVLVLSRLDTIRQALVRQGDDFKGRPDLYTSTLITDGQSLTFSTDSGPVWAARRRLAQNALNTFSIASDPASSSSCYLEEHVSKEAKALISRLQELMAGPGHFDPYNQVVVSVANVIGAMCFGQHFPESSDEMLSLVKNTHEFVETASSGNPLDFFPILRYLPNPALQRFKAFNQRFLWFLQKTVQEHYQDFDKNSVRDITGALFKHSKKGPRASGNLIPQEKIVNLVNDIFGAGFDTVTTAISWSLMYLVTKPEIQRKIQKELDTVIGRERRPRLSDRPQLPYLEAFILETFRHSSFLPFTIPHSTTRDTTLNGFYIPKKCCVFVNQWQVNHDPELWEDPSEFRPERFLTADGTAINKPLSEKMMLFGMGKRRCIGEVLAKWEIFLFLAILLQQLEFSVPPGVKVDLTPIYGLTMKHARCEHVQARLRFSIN
Briefly: Cytochrome P450 1A2 assay (P450-Glo). The format is in vitro ADME. To be noted: for inhibition at 10 µM: human. The source says:
These assays made use of the PromegaP450-Glo™ (Madison, AL, USA) assay platform. Each CYP450 assay includes microsomal preparations of cytochromes from baculovirus-infected insect cells.

In the case of `O=C1CC(c2ccc(O)cc2)Oc2ccc(O)cc21` (stereo not drawn) [Compound 2], the “% Cell growth W1-38 (10 μM)” value in series [1] is recorded as 91%. Besides, in series [2], it took 59 µM to reach half-maximal inhibition (IC50) and the inhibition at 10 µM is < 15%.

As to `O=C1CC(c2ccc(O)c(O)c2)Oc2ccc(O)cc21` (stereo not drawn) [Compound 3], in series [1], the “% Cell growth W1-38 (10 μM)” value came out at 86%. For the same compound, in series [2], inhibition was half-maximal at 62 µM (IC50) and the inhibition at 10 µM was < 15%.

For the compound `O=C1CC(c2cccc(O)c2)Oc2ccc(O)cc21` (stereo not drawn) [Compound 1], the “% Cell growth W1-38 (10 μM)” value in series [1] is listed as 108%. Besides, in series [2], the IC50 is 29 µM and at 10 µM the inhibition was 3%.

The values are drawn from article PMC6155272, “Chroman-4-One Derivatives Targeting Pteridine Reductase 1 and Showing Anti-Parasitic Activity” (Molecules : A Journal of Synthetic Chemistry and Natural …, 2017).
